“Also recorded” adds a separate entry of the source.
Legend:
[1] = system: PI3K; experiment: PI3K kinase assay (PIP3 production) in insulin-stimulated HEK293 cells; type: cell-based; conditions: HEK293 (human embryonic kidney cell line), insulin-activated, varying doses
Method: (§1) Insulin was used to activate the PI3K pathway in three different cell lines: (FIG. 5A) BEAS-2B (bronchial airway cell line), (FIG. 5B) BT549 (breast cancer cell line), and (FIG. 5C) HEK293 (human embryonic kidney cell line). The cell lines were then treated with varying doses of myo-inositol and LY-294002. PIP3 levels were measured to quantify the activation levels of the PI3K pathway (y-axis). […] Replication of these experiments produced similar results.
(§2) 80% confluent BEAS-2B, BT549, or HEK293 cells were starved in BEBM, RPMI, or DMEM medium, respectively (Clonetics, GibcoBRL). This media contained either 0.1% added supplements for the BEAS-2B cells or 0.1% fetal bovine serum for BT549 and HEK293 cells for 24 hrs. […] The production of PIP3 was evaluated by autoradiography and quantified by densitometry analysis and scintillation analysis. […]
(§3) A reduction in PI3K activity in patients that responded to myo-inositol with a regression of dysplasia in their airway reinforces the association between elevated PI3K activity levels and the presence of pre-neoplastic airway lesions. […] PI3K activity, as measured by PIP3 levels, was then quantified using a standard kinase assay protocol. For this experiment, three different cell lines were analyzed in replicate: BEAS-2B (airway), BT549 (breast cancer) and HEK293 (embryonic kidney). […]

[2] = system: dysplastic airway lesions; conditions: cited from earlier work
[3] = system: PI3K; experiment: PI3K kinase assay (PIP3 production) in insulin-stimulated BEAS-2B cells; type: cell-based; conditions: BEAS-2B (bronchial airway cell line), insulin-activated, varying doses
Method: as §1, §2, §3

[4] = system: PI3K; experiment: PI3K kinase assay (PIP3 production) in insulin-stimulated BT549 cells; type: cell-based; conditions: BT549 (breast cancer cell line), insulin-activated, varying doses
Method: as §1, §2, §3

[5] = system: PI3K pathway; experiment: GSEA of PI3K gene sets in cytologically normal airway epithelium before versus after myo-inositol treatment; type: in vivo, human
Method: Cytologically normal airway epithelial samples from patients with dysplastic airway lesions at the University of British Columbia were collected before and after 2-3 months of treatment with myo-inositol (n=20, 10 patients with two samples each), as well as six additional samples collected pre-treatment with myo-inositol as part of a dose response study. In that study, bronchial brushing was performed in three separate 6-8th generation bronchial airways using a 1.7 mm diameter bronchial cytology brush (Hobbs Medical, Stafford Springs, Conn.). The brush was retrieved and immediately immersed in RNALater and kept frozen at −80° C. until assayed. Epithelial cell content of representative bronchial brushing samples has been quantitated by cytocentrifugation (ThermoShandon Cytospin, Pittsburgh, Pa.) of the cell pellet and staining with a cytokeratin antibody (Signet, Dedham Mass.). The cells in the bronchial brush contained >90% bronchial epithelial cells. […]
Gene Set Enrichment Analysis was calculated using GSEA v2. […] Genes were ranked using the following linear model (as calculated in R): Y=β0+β1+β2+b+ε Where Y is the expression of a gene, β0 is the intercept, β1 measures lung cancer risk (whether the sample has dysplasia or not), β2 is the cumulative cigarette smoke exposure for each person (pack-years), b is a random effect correcting for batch differences, and ε is the error term. […]

**Q.** With `O[C@H]1[C@H](O)[C@@H](O)[C@H](O)[C@@H](O)[C@H]1O` [myo-inositol] as the molecule, how does the “PI3K activity, as measured by PIP3 levels” value (“PI3K activity, as measured” below) [1] read?
**A.** inhibited PI3K activity levels in a dose-dependent manner; also recorded: drop in PIP3 levels

**Q.** What about the “rate of dysplastic regression” value ([2]; oral, 2-3 months, smokers with moderate-severe dysplasia, versus placebo-treated control patients) of the same molecule?
**A.** significantly increase the rate of dysplastic regression

**Q.** What about the side effects ([2]; taken orally) of the same molecule?
**A.** very minor side effects

**Q.** And the “PI3K activity, as measured” value [3]?
**A.** inhibited PI3K activity levels in a dose-dependent manner; also recorded: drop in PIP3 levels

**Q.** What about the “PI3K activity, as measured” value [4] of the same molecule?
**A.** inhibited PI3K activity levels in a dose-dependent manner; also recorded: drop in PIP3 levels

**Q.** And the “change in expression of PI3K gene sets (GSEA), before versus after treatment” value ([5]; subjects that did not respond to treatment (n=3, 6 samples))?
**A.** no change in the levels of the PI3K gene sets

**Q.** And the “change in expression of PI3K gene sets (GSEA), before versus after treatment” value ([5]; subjects who did respond to treatment (n=6, 12 samples), p=0.04, FDR Q=0.177)?
**A.** increased expression of genes in the PI3K Down gene set
